{
  "source": "paper PMC6934184",
  "about": "“Selective DNA-PKcs inhibition extends the therapeutic index of localized radiotherapy and chemotherapy” (The Journal of Clinical Investigation, 2019)",
  "molecular_target": "T1, ABL1 Y253F (Homo sapiens, UniProt P00519, Y253F)",
  "T1 construct": "purchased Thermo Fisher Scientific (Life Technologies) SelectScreen",
  "assay": "SelectScreen Z'LYTE",
  "assay_type": "biochemical",
  "how_it_was_run": "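NU5455 was profiled across the SelectScreen Broad panel of kinase activity and binding assays. Z'LYTE reactions such as CSF1R ran at apparent Km ATP, while the Adapta CAMK1 assay used ATP listed as 10. Values are given as percent.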",
  "data": [
    {"smiles": "CN(C(=O)CN1CCOCC1)c1ccc2sc3c(-c4cccc5c(=O)cc(N6CC7CCC(C6)O7)oc45)cccc3c2c1", "note": "[NU5455]", "values": [
      {"measurement": "inhibition at 1 µM", "value": 5.9, "unit": "%"}
    ]}
  ]
}
